Consider 1 compound from publication PMC3049581, “Development and evaluation of human AP endonuclease inhibitors in melanoma and glioma cell lines” (British Journal of Cancer, 2011).

Data set [1] deals with melanoma cell lines. The data set is described as follows: MTS assay, intrinsic cytotoxicity. The class given is cell-based. The conditions noted are these: 120 h, MTS day 5, read-out: GI50 (cell growth inhibition). Here is the method: (§1) MeWo, SKMel and MM418 melanoma cancer cell line were grown in RPMI culture medium (supplemented with penicillin 0.06 g l^−1, streptomycin 0.1 g l^−1 pH 7.0, 10% foetal bovine serum (FBS, PAA Cell Culture Company, Yeovil, Somerset, UK). U89 MG and SNB-19 glioma cell lines were grown in DMEM (supplemented with penicillin 0.06 g l^−1, streptomycin 0.1 g l^−1 pH 7.0, 10% foetal bovine serum (FBS, PAA Cell Culture Company). HUVEC endothelial cells were grown in a special media (199 Media+HAMS F12), and supplemented with 20% heat-inactivated foetal calf serum, 1% Hepes, 1% Glutamine, 12.5 μg Human EGF, 625 ng of Human bFGF, 3750 units of Heparin, penicillin 0.06 g l^−1, and streptomycin 0.1 g l^−1) Only cultures with a plating efficiency of over 70% were used for analyses.
(§2) To evaluate intrinsic cytotoxicity and to evaluate the potentiation of toxicity of cytotoxic agents by APE1 inhibitors, MTS assays were performed as per the manufacturer's recommendation (Promega, Southampton, UK). Briefly, 2000 cells per well (in 200 μl of medium) were seeded into a 96-well plate. For HUVEC cells, 5 μl of 2% type 2 gelatine (Sigma) was added to the wells and the plates were preincubated for 20 min at 37°C before seeding of cells. For intrinsic cytotoxicity assessments, cells were incubated with varying concentrations of APE1 inhibitors and the MTS assay was performed on day 5. […] Non-radioactive cell proliferation assay was conducted as described previously.
(In general: Tetrazolium assays rely on reduction of a dye to a coloured formazan, in cell work by metabolically active cells.)

The subject of data set [2] is glioma cell lines. The data set is described as follows: MTS assay, intrinsic cytotoxicity. The class given is cell-based. The conditions noted are these: 120 h, MTS day 5, read-out: GI50 (cell growth inhibition). Here is the method: as §1, §2
For data set [3], the target named is T1, E. coli endonuclease IV (Escherichia coli, UniProt P0A6C1).
T1 construct: purchased Trevigen
The data set is described as follows: Fluorescence-based endonuclease IV cleavage assay (counter-screen). Type of data set: biochemical. The conditions noted are these: tested at 100 μM. On the procedure: (§3) A fluorescence-based AP site cleavage assay was performed as described previously with slight modifications ([Madhusudan et al, 2005]). Briefly, APE1 (50 nM) (New England Biolabs) was incubated in a buffer system consisting of 50 mM Tris-HCl, pH 8.0, 1 mM MgCl2, 50 mM NaCl, 2 mM DTT at 37°C for 10 min. 5′-F-GCCCCCXGGGGACGTACGATATCCCGCTCC-3′ and its complementary Q-labelled oligonucleotide (see above) were annealed in a buffer containing 100 μM Tris-HCl, 50 mM NaCl and 1 μM EDTA. AP-site cleavage was initiated by addition of the annealed substrate (25 nM) to the reaction mix. Fluorescence readings were taken at 5 min intervals during 30 min incubation at 37°C using an Envision Multilabel reader from Perkins Elmer (Cambridge, UK) with a 495 nm excitation and a 512 nm emission filter. If the DNA is cleaved at the abasic site at position 7 from the 5′-end by APE1, the 6-mer fluorescein-containing product will dissociate from its complement by thermal melting. As a result, the quenching effect of the 3′ dabcyl (which absorbs fluorescein fluorescence when in close proximity) is lost, and APE1 activity is measured indirectly as an increase in fluorescence signal (Figure 2A). Similar assays were developed for monitoring the AP endonuclease activity of endonuclease IV using a buffering system containing 10 mM HEPES-KOH, pH 7.4, 100 mM KCl and 60 ng of endonuclease IV (Trevigen, Abingdon, UK). The final DMSO concentration was maintained at 1.2% in all assays.
(§4) APE1 was incubated with the candidate inhibitors at 100 μM (final DMSO concentration, 1.2%) before initiating the AP site cleavage assay described in the previous section. […] In addition, screening of potential inhibitors for their specificity (at 100 μM concentration) was performed using endonuclease IV cleavage assays.

Data set [4] deals with U89MG glioma cell line. The data set is described as follows: MTS assay, potentiation of cytotoxic agents. Type of data set: cell-based. The conditions noted are these: inhibitor 10 μM. On the procedure:
as §1, §2

For data set [5], the system named is SK-Mel30 melanoma cell line. The data set is described as follows: MTS assay, potentiation of cytotoxic agents. The class given is cell-based. The conditions noted are these: inhibitor 10 μM. Here is the method:
as §1, §2

The test system of data set [6] is HUVEC endothelial cells. The data set is described as follows: MTS assay, toxicity in non-cancer cells. Type of data set: cell-based. The conditions noted are these: compared with SK-Mel30 and U89MG. On the procedure:
as §1
To evaluate intrinsic cytotoxicity and to evaluate the potentiation of toxicity of cytotoxic agents by APE1 inhibitors, MTS assays were performed as per the manufacturer's recommendation (Promega, Southampton, UK). Briefly, 2000 cells per well (in 200 μl of medium) were seeded into a 96-well plate. For HUVEC cells, 5 μl of 2% type 2 gelatine (Sigma) was added to the wells and the plates were preincubated for 20 min at 37°C before seeding of cells. For intrinsic cytotoxicity assessments, cells were incubated with varying concentrations of APE1 inhibitors and the MTS assay was performed on day 5. […]

In data set [7] the target is T2, D148E polymorphic variant of APE1 (Homo sapiens, UniProt P27695, D148E).
T2 construct: made in house
The data set is described as follows: Fluorescence-based AP site cleavage assay, D148E polymorph. Type of data set: biochemical. On the procedure: as §3
To estimate IC50 for APE1 inhibition, the ability of the compounds to inhibit APE1 at a range of concentrations (10 nM–100 μM) were evaluated in black 384-well plates. The reactions were set up as before and fluorescence intensity was measured every 5 min for 30 min following reaction initiation. Using the initial rate values from the assay, percent activity was calculated for each sample relative to a negative DMSO only control. […]

Data set [8] has as its target T3, Human APE1 (Homo sapiens, UniProt P27695).
T3 construct: purchased New England Biolabs
The data set is described as follows: Fluorescence-based AP site cleavage assay. The class given is biochemical. The conditions noted are these: APE1 50 nM, wild type. On the procedure: as §3, §4
To estimate IC50 for APE1 inhibition, the ability of the compounds to inhibit APE1 at a range of concentrations (10 nM–100 μM) were evaluated in black 384-well plates. The reactions were set up as before and fluorescence intensity was measured every 5 min for 30 min following reaction initiation. Using the initial rate values from the assay, percent activity was calculated for each sample relative to a negative DMSO only control. The data was fitted to a sigmoidal dose-response model using Graphpad Prism 3.0 (GraphPad Software, La Jolla, CA, USA) and IC50 values were determined using the formula: % Activity=100/(1+10^(log[I]−log IC 50)).

Data set [9] deals with U89MG cells. The data set is described as follows: Aldehyde reactive probe assay, genomic AP sites. Type of data set: cell-based. On the procedure:
AP sites were quantified as described previously ([Madhusudan et al, 2005]). Genomic DNA was extracted from a pellet of 1 × 10^6 cells using the guanidine/detergent lysis method. Briefly, 0.5 ml of DNAzol (Helena Biosciences, Gateshead, UK) was added to the pellet and the cell lysate was gently passed several times through a pipette. The resultant viscous solution was centrifuged at 10 000 g for 10 min at 25°C. DNA was precipitated from the supernatant using 0.25 ml of 100% ethanol by gently inverting the tube 5–8 times at room temperature for 1–3 min. The DNA was washed twice in 0.4 ml of 75% ethanol. The DNA was then solubilized in TE buffer (pH 8.0), and the final concentration was adjusted to 100 μg ml^−1 (using a Gene Quant pro spectrophotometer). AP-site determinations were performed on the genomic DNA using an aldehyde reactive probe assay kit using the protocol provided by the manufacturer (BioVision Research Products, Mountainview, CA, USA). Untreated cells were compared with cells exposed to either MMS alone, APE1 inhibitor alone or combination of MMS and APE1 inhibitor. DNA was extracted at 90 min and AP site quantified as described previously. All experiments were performed in triplicate.

Structures are written as SMILES. Entries after “also recorded” stand apart in the source; their conditions may differ.

T2 sequence (P27695 whole entry D148E): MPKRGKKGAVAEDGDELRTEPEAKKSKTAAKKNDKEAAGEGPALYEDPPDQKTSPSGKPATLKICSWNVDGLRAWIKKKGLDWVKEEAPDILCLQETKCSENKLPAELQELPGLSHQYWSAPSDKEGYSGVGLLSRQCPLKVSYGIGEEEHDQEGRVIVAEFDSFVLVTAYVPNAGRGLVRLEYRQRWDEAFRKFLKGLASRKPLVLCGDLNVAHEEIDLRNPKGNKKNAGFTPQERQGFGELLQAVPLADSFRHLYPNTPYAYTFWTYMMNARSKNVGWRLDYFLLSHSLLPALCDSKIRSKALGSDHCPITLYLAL
T3 sequence (P27695 whole entry): as the sequence (P27695 whole entry D148E) above, with E148D counted along it

In the case of `Cc1ccc(-c2nc(S(=O)(=O)c3ccccc3)c(SCC(=O)Nc3ccc(F)cc3)o2)cc1` [Compound 4, N-(4-fluorophenyl)-2-(4-phenylsulfonyl-2-(p-tolyl)oxazol-5-yl) sulfanyl-acetamide], the values for the 50% growth inhibitory concentration (GI50) in data set [1] and in data set [2] were 20 µM and 17 µM, respectively. The “Endo IV inhibition” value in data set [3] was “no inhibition and None”. Further, the “potentiation of cytotoxicity of MMS” value in [4] is reported as “Potentiation; also recorded: significantly potentiated”; in data set [5], “Potentiation”. The “potentiation of cytotoxicity of doxorubicin” value in [4] and in [5] was “did not potentiate” in each case. Also, the “potentiation of cytotoxicity of temozolomide” value in data set [4] was “Potentiation; also recorded: significantly potentiated”; in data set [5], “Potentiation”. Further, the “toxicity to HUVEC cells” value in data set [6] is listed as “relatively nontoxic”. For the same compound, the IC50 (commonly the concentration at which inhibition is half-maximal) is 5.56 µM in data set [7] (D148E polymorph, 50 nM protein, read-out: IC50 for APE1 inhibition, D148E protein) and 11 µM in data set [8]. Also, in [7] (D148E vs wild type), the “reduction of IC50 for D148E protein compared with wild type” value was found to be 50.5%. In [7] (fluorescence or radiolabelled assays), the “preferential inhibitory activity towards D148E compared with wild type” value is given as “D148E was more sensitive to inhibition”. The “AP site content in genomic DNA, combination with MMS” value in data set [9] (10 μM inhibitor + MMS 600 μM, 90 min) is on record as “increased AP site content”. Besides, the “AP site accumulation in genomic DNA, inhibitor alone” value in data set [9] (10 μM, DNA extracted at 90 min, vs untreated cells) is listed as “accumulated AP sites”.
